# Patent publication EP1996603B1, “LIPID A ANTAGONISTS WITH ANTI-SEPTIC SHOCK, ANTI-INFLAMMATORY, ANTI-ISCHEMIA AND ANALGESIC ACTIVITY” (Università Degli Studi Di Milano - Bicocca, priority 2006, dated 2007)
# “Also recorded” adds a separate entry of the source.
# Assays:
# [1] = tested on: TLR9; assay: TNFα production after stimulation with CpG (TLR9 selectivity); format: cell-based, Mouse; settings: stimulation through CpG, recognized by TLR9
# Experimental: (§1) • Figure 1. Antagonistic activity of compounds Ia, Ic and Id on lipid A-stimulated cytokine production in BMDC, BMØ and D1 cells. TNFα production was measured in the supernatants 24 h later. From the right: lipid A (0.5µM), cells treated with lipid A alone; DMSO: cells incubated in the presence of complete medium plus DMSO; inhibitor 50 µM, cells treated only with monosaccharides Ia, Ic and Id; other columns, lipid A + compounds […] at increasing doses. The data represent means and standard deviations of triplicate wells. This is a representative of three independent experiments. *, p < 0.05; **, p < 0.01; ***, p< 0.001. • Figure 2. TLR-4 selectivity of monosaccharide Id. […] IL-1β was measured in the supernatants by ELISA. […] Lower panels, TNFα production measured by ELISA 24 h after stimulation with CpG (selective for TLR-9) or PAM3Cys-SK4 (selective for TLR-2) in the presence of compound Id. […] The cells were then analyzed by FACS for the presence of annexin V and propidium iodide (PI) double positive cells. […] NF-kB activation was evaluated in the nuclear extract 2 h later and expressed as optical density (OD) at 450 nm. […] Effect of different doses of compound Id on carrageenan induced edema in mice measured 4h after the exposure and expressed as difference between the paw volume of treated paw versus the contralateral paw. […]
# [2] = tested on: DC and MΦ; assay: Cytotoxicity: PI test and annexin V test by FACS; format: cell-based; settings: 10 to 100 µM, 48 h incubation, 24 h in Figure 3 legend
# Experimental: as §1
# [3] = biological target: T1, TLR9 (Homo sapiens, UniProt Q9NR96); assay: NF-kB activation in HEK-293 cells transfected with TLR9, stimulated with CpG; format: cell-based; settings: TLR9-transfected HEK 293; CpG (0.5 µM); maximal dose of 50 µM; measured 2 h later
# T1 construct: host or cells: HEK-293 (HEK-293-hTLR9A)
# T1 sequence (Q9NR96 26-1032): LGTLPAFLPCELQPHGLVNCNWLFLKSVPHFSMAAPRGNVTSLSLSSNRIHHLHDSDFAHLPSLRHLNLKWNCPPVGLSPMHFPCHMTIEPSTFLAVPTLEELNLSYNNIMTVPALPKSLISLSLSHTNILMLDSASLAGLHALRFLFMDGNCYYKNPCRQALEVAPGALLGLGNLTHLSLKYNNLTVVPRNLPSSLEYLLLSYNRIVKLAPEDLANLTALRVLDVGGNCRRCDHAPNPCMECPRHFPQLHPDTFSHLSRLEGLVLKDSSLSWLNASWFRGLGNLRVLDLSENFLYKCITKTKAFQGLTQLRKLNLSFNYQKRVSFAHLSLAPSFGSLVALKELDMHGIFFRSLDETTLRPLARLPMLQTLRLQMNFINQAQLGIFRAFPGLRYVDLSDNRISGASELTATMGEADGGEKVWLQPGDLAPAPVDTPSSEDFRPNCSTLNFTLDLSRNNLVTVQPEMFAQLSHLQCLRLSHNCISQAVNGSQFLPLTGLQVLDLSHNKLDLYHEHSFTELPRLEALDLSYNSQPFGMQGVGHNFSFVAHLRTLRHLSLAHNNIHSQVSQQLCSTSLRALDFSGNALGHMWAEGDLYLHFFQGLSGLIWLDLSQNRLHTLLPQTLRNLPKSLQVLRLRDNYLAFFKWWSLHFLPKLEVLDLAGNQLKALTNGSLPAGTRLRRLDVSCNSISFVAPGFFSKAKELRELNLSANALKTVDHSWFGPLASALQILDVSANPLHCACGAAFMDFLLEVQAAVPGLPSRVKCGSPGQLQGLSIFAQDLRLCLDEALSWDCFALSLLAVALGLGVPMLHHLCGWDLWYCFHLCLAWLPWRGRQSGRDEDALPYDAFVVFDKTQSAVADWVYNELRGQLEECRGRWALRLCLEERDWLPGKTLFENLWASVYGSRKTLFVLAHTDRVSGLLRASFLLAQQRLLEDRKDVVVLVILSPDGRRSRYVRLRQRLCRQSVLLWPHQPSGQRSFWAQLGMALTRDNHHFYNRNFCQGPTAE
# Experimental: as §1
smiles,measurement,setting,value
"CCCCCCCCCCCCCCO[C@H]1[C@@H](OC)O[C@H](C[N+](C)(C)C2CCCC2)[C@@H](O)[C@@H]1OCCCCCCCCCCCCCC [Compound Id, methyl 6-deoxy-6-N,N',N""-dimethylcyclopentylammonium-2,3-di-O-tetradecyl-α-D-glucopyranoside]",TNFα production,[1],not inhibited
same,percent of dead cells,[2],does not induce death of MΦ and DC; also recorded: Neither DC nor MΦ showed an appreciable percent of dead cells
same,NF-kB activation,[3],inactive
